Key:
[1] = Cytotoxicity against mouse Clone M-3 cells measured after 8 days; assay type: functional, cell-based; conditions: Clone M-3, 192 h
[2] = test system: COLO-829; test: Cytotoxicity against human COLO-829 cells measured after 8 days; assay type: functional, cell-based; conditions: COLO-829, 192 h
[3] = test system: DOHH-2; test: Cytotoxicity against human DOHH-2 cells measured after 8 days; assay type: functional, cell-based; conditions: DOHH-2, 192 h
[4] = Cytotoxicity against human CL-11 cells measured after 8 days; assay type: functional, cell-based; conditions: CL-11, 192 h
[5] = test system: MIA PaCa-2; test: Cytotoxicity against human MIA Paca-2 cells measured after 8 days; assay type: functional, cell-based; conditions: MIA PaCa-2, 192 h
[6] = test system: COLO-680N; test: Cytotoxicity against human COLO-680N cells measured after 8 days; assay type: functional, cell-based; conditions: 192 h
[7] = Cytotoxicity against human VP229 cells measured after 8 days; assay type: functional, cell-based; conditions: VP229, 192 h
[8] = test system: SW626; test: Cytotoxicity against human SW626 cells measured after 8 days; assay type: functional, cell-based; conditions: SW626, 192 h
[9] = Cytotoxicity against human SNU-668 cells measured after 8 days; assay type: functional, cell-based; conditions: SNU668, 192 h
[10] = Cytotoxicity against human NCE-G 120 cells measured after 8 days; assay type: functional, cell-based; conditions: NCE-G 120, 192 h
[11] = Cytotoxicity against human GCH-nu-YS cells measured after 8 days; assay type: functional, cell-based; conditions: 192 h
[12] = Cytotoxicity against human HLF cells measured after 8 days; assay type: functional, cell-based; conditions: 192 h
[13] = test system: KYSE-70 cell line; test: Cytotoxicity against human KYSE-70 cell line measured after 8 days; assay type: functional, cell-based; conditions: KYSE-70, 192 h
[14] = test system: Ishikawa; test: Cytotoxicity against human Ishikawa cells measured after 8 days; assay type: functional, cell-based; conditions: 192 h
[15] = test system: SK-N-BE(2); test: Cytotoxicity against human SK-N-BE(2) cells measured after 8 days; assay type: functional, cell-based; conditions: SKNBE2, 192 h
[16] = test system: BOKU; test: Cytotoxicity against human BOKU cells measured after 8 days; assay type: functional, cell-based; conditions: 192 h
[17] = target: Bromodomain-containing protein 4 (Homo sapiens, UniProt O60885); test: Displacement of biotinylated small-molecule ligand from recombinant His-tagged BRD4 bromodomain 2 (unknown origin) measured after 10 mins by TR-FRET assay
[18] = test system: U-266; test: Cytotoxicity against human U266B1 cells measured after 8 days; assay type: functional, cell-based; conditions: U-266, 192 h
[19] = test system: NCI-H1930; test: Cytotoxicity against human NCI-H1930 cells measured after 8 days; assay type: functional, cell-based; conditions: NCI-H1930, 192 h
[20] = test system: SiHa; test: Cytotoxicity against human SiHa cells measured after 8 days; assay type: functional, cell-based; conditions: 192 h
[21] = test system: OE33; test: Cytotoxicity against human OE33 cells measured after 8 days; assay type: functional, cell-based; conditions: OE33, 192 h
[22] = Cytotoxicity against human HCC1534 cells measured after 8 days; assay type: functional, cell-based; conditions: HCC1534, 192 h
[23] = test system: MCF-10A; test: Cytotoxicity against human MCF-10A CDH1-/- cells measured after 8 days; assay type: functional, cell-based; conditions: 192 h
[24] = Cytotoxicity against human GOS-3 cells measured after 8 days; assay type: functional, cell-based; conditions: GOS-3, 192 h
[25] = Cytotoxicity against human NCE-G 122 cells measured after 8 days; assay type: functional, cell-based; conditions: NCE-G 122, 192 h
[26] = test system: KMS-12-PE; test: Cytotoxicity against human KMS-12-PE cells measured after 8 days; assay type: functional, cell-based; conditions: 192 h
[27] = test system: A2780; test: Cytotoxicity against human A2780 cells measured after 8 days; assay type: functional, cell-based; conditions: A2780, 192 h
[28] = Cytotoxicity against human Kelly cells measured after 8 days; assay type: functional, cell-based; conditions: 192 h
[29] = test system: BT-20; test: Cytotoxicity against human BT-20 cells measured after 8 days; assay type: functional, cell-based; conditions: BT-20, 192 h
[30] = Cytotoxicity against human COLO 685 cells measured after 8 days; assay type: functional, cell-based; conditions: COLO 685, 192 h
[31] = test system: SK-CO-1; test: Cytotoxicity against human SK-CO-1 cells measured after 8 days; assay type: functional, cell-based; conditions: SK-CO-1, 192 h
[32] = test system: Renca; test: Cytotoxicity against mouse Renca cells measured after 8 days; assay type: functional, cell-based; conditions: 192 h
[33] = test system: JJN-3; test: Cytotoxicity against human JJN-3 cells measured after 8 days; assay type: functional, cell-based; conditions: JJN-3, 192 h
[34] = test system: SET-2; test: Cytotoxicity against human SET2 cells measured after 8 days; assay type: functional, cell-based; conditions: SET-2, 192 h
[35] = test system: 769-P; test: Cytotoxicity against human 769-P cells measured after 8 days; assay type: functional, cell-based; conditions: 192 h
[36] = test system: SW1463; test: Cytotoxicity against human SW1463 cells measured after 8 days; assay type: functional, cell-based; conditions: SW1463, 192 h
[37] = Cytotoxicity against human NCI-H2803 cells measured after 8 days; assay type: functional, cell-based; conditions: NCI-H2803, 192 h
[38] = test system: MG-63; test: Cytotoxicity against human MG-63 cells measured after 8 days; assay type: functional, cell-based; conditions: MG-63, 192 h
[39] = Cytotoxicity against human DEOC-1 cells measured after 8 days; assay type: functional, cell-based; conditions: DEOC-1, 192 h
[40] = Cytotoxicity against human JHH-2 cells measured after 8 days; assay type: functional, cell-based; conditions: JHH-2, 192 h
[41] = Cytotoxicity against human NCE-G 118 cells measured after 8 days; assay type: functional, cell-based; conditions: NCE-G 118, 192 h
[42] = test system: KM12; test: Cytotoxicity against human KM12 cells measured after 8 days; assay type: functional, cell-based; conditions: KM12, 192 h
[43] = Cytotoxicity against human NCE-G 59 cells measured after 8 days; assay type: functional, cell-based; conditions: NCE-G 59, 192 h
[44] = Cytotoxicity against human KPP14388 LN cells measured after 8 days; assay type: functional, cell-based; conditions: 192 h
[45] = Cytotoxicity against human MCAS cells measured after 8 days; assay type: functional, cell-based; conditions: 192 h
[46] = Cytotoxicity against human 537-mel cells measured after 8 days; assay type: functional, cell-based; conditions: 192 h
[47] = Cytotoxicity against human KPR3070 cells measured after 8 days; assay type: functional, cell-based; conditions: KPR3070, 192 h
[48] = target: Serine/threonine-protein kinase PLK1 (Homo sapiens) (UniProt P53350); test: Inhibition of PLK1 (unknown origin) at 1 uM relative to control
[49] = test system: CHP-212; test: Cytotoxicity against human CHP-212 cells measured after 8 days; assay type: functional, cell-based; conditions: CHP-212, 192 h
[50] = test system: KMS-11; test: Cytotoxicity against human KMS-11 cells measured after 8 days; assay type: functional, cell-based; conditions: KMS-11, 192 h
[51] = Cytotoxicity against human FA9JTOTERT cells measured after 8 days; assay type: functional, cell-based; conditions: 192 h
[52] = test system: Ca-Ski; test: Cytotoxicity against human Ca-Ski cells measured after 8 days; assay type: functional, cell-based; conditions: 192 h
[53] = Cytotoxicity against human HEC-251 cells measured after 8 days; assay type: functional, cell-based; conditions: HEC-251, 192 h
[54] = Cytotoxicity against human IGR-39 cells measured after 8 days; assay type: functional, cell-based; conditions: IGR-39, 192 h
[55] = test system: CAKI-1; test: Cytotoxicity against human CAKI-1 cells measured after 8 days; assay type: functional, cell-based; conditions: CAKI-1, 192 h
[56] = test system: BHY; test: Cytotoxicity against human BHY cells measured after 8 days; assay type: functional, cell-based; conditions: 192 h
[57] = Cytotoxicity against human UKE-1 cells measured after 8 days; assay type: functional, cell-based; conditions: UKE1, 192 h
[58] = Cytotoxicity against human KMRC-1 cells measured after 8 days; assay type: functional, cell-based; conditions: KMRC-1, 192 h
[59] = test system: CCF-STTG1; test: Cytotoxicity against human CCF-STTG1 cells measured after 8 days; assay type: functional, cell-based; conditions: CCF-STTG1, 192 h
[60] = test system: EFE-184; test: Cytotoxicity against human EFE-184 cells measured after 8 days; assay type: functional, cell-based; conditions: EFE-184, 192 h
[61] = Cytotoxicity against human HEC-6 cells measured after 8 days; assay type: functional, cell-based; conditions: HEC-6, 192 h
[62] = test system: KP-N-YN; test: Cytotoxicity against human KP-N-YN cells measured after 8 days; assay type: functional, cell-based; conditions: 192 h

Sequence of Serine/threonine-protein kinase PLK1 (Homo sapiens) (P53350 whole entry): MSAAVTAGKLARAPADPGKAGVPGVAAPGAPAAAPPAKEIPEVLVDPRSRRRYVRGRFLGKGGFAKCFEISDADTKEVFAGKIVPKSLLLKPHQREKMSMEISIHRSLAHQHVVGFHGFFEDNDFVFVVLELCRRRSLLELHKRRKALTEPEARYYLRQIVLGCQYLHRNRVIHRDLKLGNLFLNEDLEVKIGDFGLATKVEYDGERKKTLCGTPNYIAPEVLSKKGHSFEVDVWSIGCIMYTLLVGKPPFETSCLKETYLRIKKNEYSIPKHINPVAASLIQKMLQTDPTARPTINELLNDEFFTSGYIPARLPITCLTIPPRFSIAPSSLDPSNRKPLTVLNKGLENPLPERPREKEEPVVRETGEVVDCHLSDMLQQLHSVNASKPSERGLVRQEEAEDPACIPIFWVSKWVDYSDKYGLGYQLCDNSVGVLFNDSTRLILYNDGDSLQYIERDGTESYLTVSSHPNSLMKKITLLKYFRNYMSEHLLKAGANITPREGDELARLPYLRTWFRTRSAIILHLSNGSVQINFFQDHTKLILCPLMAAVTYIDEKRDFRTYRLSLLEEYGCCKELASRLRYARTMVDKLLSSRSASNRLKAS

## C/C=C/Cn1cc(-c2ccc(C(=O)N3CCOCC3)cc2)c2cc[nH]c2c1=O
[1]
  IC50: 20 µM
[2]
  IC50: 20 µM
[3]
  IC50: 16.1 µM
[4]
  IC50: 20 µM
[5]
  IC50: 20 µM
[6]
  IC50: 20 µM
[7]
  IC50: 20 µM
[8]
  IC50: 20 µM
[9]
  IC50: 20 µM
[10]
  IC50: 20 µM
[11]
  IC50: 20 µM
[12]
  IC50: 20 µM
[13]
  IC50: 20 µM
[14]
  IC50: 20 µM
[15]
  IC50: 20 µM
[16]
  IC50: 20 µM
[17]
  IC50: 8.3 µM
[18]
  IC50: 20 µM
[19]
  IC50: 20 µM
[20]
  IC50: 20 µM
[21]
  IC50: 20 µM
[22]
  IC50: 20 µM
[23]
  IC50: 20 µM
[24]
  IC50: 20 µM
[25]
  IC50: 20 µM
[26]
  IC50: 20 µM
[27]
  IC50: 20 µM
[28]
  IC50: 20 µM
[29]
  IC50: 20 µM
[30]
  IC50: 20 µM
[31]
  IC50: 20 µM
[32]
  IC50: 20 µM
[33]
  IC50: 12.2 µM
[34]
  IC50: 11.1 µM
[35]
  IC50: 20 µM
[36]
  IC50: 20 µM
[37]
  IC50: 20 µM
[38]
  IC50: 20 µM
[39]
  IC50: 20 µM
[40]
  IC50: 20 µM
[41]
  IC50: 20 µM
[42]
  IC50: 20 µM
[43]
  IC50: 20 µM
[44]
  IC50: 20 µM
[45]
  IC50: 20 µM
[46]
  IC50: 20 µM
[47]
  IC50: 20 µM
[48]
  inhibition: 0.9%
[49]
  IC50: 18.6 µM
[50]
  IC50: 12.4 µM
[51]
  IC50: 20 µM
[52]
  IC50: 20 µM
[53]
  IC50: 20 µM
[54]
  IC50: 20 µM
[55]
  IC50: 20 µM
[56]
  IC50: 20 µM
[57]
  IC50: 12.4 µM
[58]
  IC50: 20 µM
[59]
  IC50: 20 µM
[60]
  IC50: 20 µM
[61]
  IC50: 20 µM
[62]
  IC50: 20 µM

## C/C=C/Cn1cc(-c2cc(OC)c(C(C)(C)O)cc2OC)c2cc(C)[nH]c2c1=O
[17]
  IC50: > 20 µM

From ChEMBL document CHEMBL5260810, “Inhibition of bromodomain-containing protein 9 for the prevention of epigenetically-defined drug resistance” (Bioorg Med Chem Lett, 2017)
